# Laboratory results taken from PMC11189555, “Aryl amino acetamides prevent Plasmodium falciparum ring development via targeting the lipid-transfer protein PfSTART1” (Nature Communications, 2024).
# Key:
# [1] = molecular target: T1, PfSTART1 in parasite lysate (Plasmodium falciparum, UniProt Q8I298); test: Solvent profiling Western Blot (solvent induced protein precipitation); format: binding; details: 10 µM W-991 vs DMSO, 0-25% AEF
# T1 construct: endogenous in cells; host or cells: P. falciparum 3D7 schizonts, NP40-soluble lysate
# T1 sequence (Q8I298 entry or part of it): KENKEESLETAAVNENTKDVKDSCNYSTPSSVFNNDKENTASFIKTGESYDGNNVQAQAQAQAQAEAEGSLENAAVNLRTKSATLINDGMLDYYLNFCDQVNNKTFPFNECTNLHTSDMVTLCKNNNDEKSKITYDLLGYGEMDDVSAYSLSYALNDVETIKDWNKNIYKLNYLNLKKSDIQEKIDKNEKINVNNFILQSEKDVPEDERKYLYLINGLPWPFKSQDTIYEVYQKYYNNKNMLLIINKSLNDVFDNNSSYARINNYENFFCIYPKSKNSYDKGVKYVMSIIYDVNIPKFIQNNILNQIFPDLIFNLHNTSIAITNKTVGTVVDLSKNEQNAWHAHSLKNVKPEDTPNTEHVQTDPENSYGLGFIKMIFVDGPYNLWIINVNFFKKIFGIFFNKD
# Protocol: 3D7 parasites at schizont stage were harvested with 10 x pellet volume of 0.15% saponin in PBS. To extract soluble material, 10 x pellet volume of 0.4% NP40 (IGEPAL CA-630, Sigma-Aldrich) in PBS with 1x Complete Protease cocktail tablet (Sigma-Aldrich) was added to the parasite pellets and 3 cycles of freeze/thawing was performed. Samples were then mechanically sheared by passage through 25 G and 30 G needles before lysate was cleared via centrifugation at 16,000 g x 30 min at 4 °C. Soluble fractions were collected and stored at −80 °C until use.
# For the solvent challenge, lysate was subjected to either W-991 (10 µM) or DMSO (0.1%) treatment for 3 min before aliquoted into final concentrations of 0-25% of Acetic acid/Ethanol/Formic acid (AEF) at a 50:50:0.1 (v/v/v)[25],[26]. The treated lysate and AEF mixture was incubated at 37 °C for 20 min at 800 rpm before aggregates were pelleted at 17,000 g x 20 min at 4 °C. Soluble fractions were removed, added to the final concentration of 1x NuPAGE LDS Sample Buffer (Invitrogen) with 1:100 2-mercaptoethanol (Sigma Aldrich) and boiled for 3 min. Proteins were separated on an 4-12% acrylamide gel (NuPAGE, Invitrogen) and subsequently transferred by electroblotting onto nitrocellulose membranes. Blots were probed with primary antibody anti-PfSTART1 (1:1000), followed by secondary antibody anti-rabbit-HRP (1:4000, Merck Millipore). […]
# [2] = tested on: parasitophorous vacuole membrane of newly invaded merozoites; test: Lattice light sheet imaging and vacuole tracking; format: cell-based, Plasmodium falciparum; details: 60 nM W-991 vs DMSO
# Protocol: Parasites were sorbitol synchronised at days 5 and 2 prior to filming. To prepare the parasites for filming, culture was loaded on LS columns attached to MACS MultiStand (Miltenyi Biotec) to isolate late-stage parasites. Imaging medium was prepared by adding 10 μM Trolox (Santa Cruz 53188-07-1) to the culture medium. To compare the effect of drug treatment on parasite invasion, either 60 nM of W-991 or an equivalent DMSO concentration was added to the imaging medium. RBCs were resuspended at 0.5% hematocrit in RPMI-HEPES supplemented with 0.2% sodium bicarbonate and stained with 1.5 μM Di-4-[…] (Invitrogen D36802) membrane marker for 1 h at 37 °C. The stained RBCs were then washed 3 x and resuspended in imaging medium. Purified schizonts were resuspended in culture medium and incubated with 25 nM Mitotracker Deep Red FM (Invitrogen M22426) for 30 min at 37 °C, 5% CO2. The stained schizonts were then pelleted and the supernatant removed before resuspending the schizonts in the imaging medium. Before imaging, imaging medium with drug was loaded to a well and imaging medium with DMSO control was loaded to another well on an 8-well glass bottom plate (Ibidi 80807). Stained RBCs and stained schizonts were then added to each well and let settle for 30 min. The imaging experiments were performed on Zeiss Lattice Lightsheet 7. […]
# [3] = molecular target: T2, recombinant PfSTART1(N330K) (I149-V394) (Plasmodium falciparum, UniProt Q8I298, N330K); test: Isothermal titration calorimetry; format: binding; details: for Differential Power DP_Y / ΔH NDH_Y: PfSTART(N330K), ITC replicate data
# T2 construct: 8xHis tag (N); TEV protease cleavage site (N); made in house; host or cells: Sf21 insect cells (baculovirus)
# T2 sequence (Q8I298 149-394 N330K): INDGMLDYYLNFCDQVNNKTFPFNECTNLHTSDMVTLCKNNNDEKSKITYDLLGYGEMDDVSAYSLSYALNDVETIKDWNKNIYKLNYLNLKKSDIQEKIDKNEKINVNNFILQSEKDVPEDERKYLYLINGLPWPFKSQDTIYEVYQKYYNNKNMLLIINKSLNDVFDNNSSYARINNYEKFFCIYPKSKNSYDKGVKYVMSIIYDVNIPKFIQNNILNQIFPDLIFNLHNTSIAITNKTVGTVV
# Text: S. frugiperda codon optimised full-length N309K and N330K PfSTART1 mutants were first synthesised by Integrated DNA Technologies, and then I149 forward and V394 reverse primers utilised to clone the same I149-V394 construct boundaries into the modified pAcGP67a expression vector with a N-terminal GP67-signal sequence, 8xHis tag, and TEV protease cleavage site. As a result of the subcloning, SSG was removed upstream of the TEV cleavage site. Construct boundaries and incorporation of the N309K and N330K mutations was verified by Sanger sequencing. The PfSTART1 mutants were expressed and purified as per wild-type PfSTART1.
# ITC experiments were performed on a MicroCal PEAQ-ITC calorimeter at 25 °C, with a stirring speed of 750 rpm and a reference power of 5 μcal/sec. 500 μM M-833 series inhibitor solutions were diluted to 10 μM in 50 mM NaPO4^-3 (pH 7.4), 150 mM NaCl with a final DMSO concentration of 2% (v/v) (cell sample). PfSTART1 protein was dialysed extensively against 50 mM NaPO4^-3 (pH 7.4), 150 mM NaCl, before diluting to 90 μM in the same buffer with 2% (v/v) DMSO (syringe sample). The first injection was 0.4 μL over a 0.8 s duration, and the remaining 19 injections were 2 μL of 4 s duration, with 150 s injection spacing. Data were collected and analysed using the PEAQ-ITC software (MicroCal) and fit by a single site binding model. A fitted offset (constant control heat) was also applied to the integrated heat.
structure (smiles),measurement,setting,value
CC(C)(Nc1ccc(Cl)c(S(=O)(=O)N2CCOCC2)c1)C(=O)Nc1ccc(F)c(Cl)c1 [W-991],AEF concentration at which protection to PfSTART1 aggregation was elicited,[1],19-21 % AEF
same,shape/sphericity of the PVM of newly invaded merozoites,[2]; p = 0.045 at 15 min,remained spherical
same,mean vacuole surface area and volume of the PVM,"[2]; p = 0.109, p = 0.129",reduced in W-991 but this did not reach significance
same,interaction with PfSTART1(N330K),[3]; ITC,no interaction
same,Differential Power DP_Y,[3]; DP_X 0.083333,-0.001242
same,Differential Power DP_Y,[3]; DP_X 0.1,-0.0011
same,ΔH NDH_Y,[3]; NDH_X 0.104703,-2.588
same,ΔH NDH_Y,[3]; NDH_X 0.192876,-2.749
